Experimental data reported in patent US20240182531A1, “KV1.3 Blockers” (priority 2021, published 2024).
Several values for one entry are separate records, joined by “and”; a condition that tells them apart may be missing. Equal values may be shown once. Read-outs that look alike come from different tables or passages of the source. Where a SMILES comes first, the peptide text is derived from it. Bridges are numbered along the chain shown (N, C = ends). [ ]: non-standard residue; d: D form. Agp = N=C(N)NC[C@H](N)C(=O)O; Nle = CCCC[C@H](N)C(=O)O

Columns and labels:
[1] = target: T1, human Kv1.3 voltage-gated K+ channel (Homo sapiens, UniProt P22001); experiment: Kv1.3 blocker activity in FLIPR thallium assay; assay type: cell-based
T1 construct: host or cells: CHO-DUKX
Method in brief: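 CHO-DUKX cells stably expressing Kv1.3 were pre-incubated with compound for 30 min at 37° C in buffer with 0.02% w/v casein. Depolarization used final stimulus buffer with 5 mM K2SO4 and 1 mM Tl2SO4. Thallium-flux fluorescence was read at maximum response at 50 s, 37° C, and IC50 derived.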

[2] = target: T2, human Kv1.1 (Homo sapiens, UniProt Q09470); experiment: cell-based; settings: for Selectivity ratio Kv1.1/Kv1.3: ratio of patch clamp IC50 values
T2 construct: expressed in transfected cells; host or cells: CHO

[3] = target: T3, human Kv1.2 (Homo sapiens, UniProt P16389); experiment: cell-based; settings: for Selectivity ratio Kv1.2/Kv1.3: ratio of patch clamp IC50 values
T3 construct: expressed in transfected cells; host or cells: CHO

[4] = target: T4, human Kv1.3 (Homo sapiens, UniProt P22001); experiment: cell-based; settings: CHO cells, QPatch whole-cell; read-out: Potency IC50 Kv1.3
T4 construct: expressed in transfected cells; host or cells: CHO

[5] = target: T5, human Kv1.6 (Homo sapiens, UniProt P17658); experiment: cell-based; settings: for Selectivity ratio Kv1.6/Kv1.3: ratio of patch clamp IC50 values
T5 construct: expressed in transfected cells; host or cells: CHO

[6] = test system: Human peripheral blood mononuclear cells (PBMCs); assay type: cell-based; settings: geometric mean, at least 6 replicates, Example 5b; read-out: anti-CD3 PBMC/IL-2 IC50
Method: Human peripheral blood mononuclear cells (PBMCs) were used to assess the effects of Kv1.3 blocker reference compounds on T-cell activation as determined by IL-2 release after stimulation with anti-CD3.
Human PBMCs were obtained from Precision for Medicine (Frederick, MD). Cells from 5 donors were used. Plate-bound anti-CD3 was used to stimulate bulk T cells in the PBMC preparations. Briefly, 96-well plates were coated with anti-CD3 antibody for app. 16 hours at 5° C., using 50 μl of a 1 μg/ml anti-CD3 solution diluted in PBS. Thereafter the plates were washed twice.
Kv1.3 blockers were subsequently diluted in medium (RPMI 1640 with Glutamax-I containing, 10% v/v Fetal Bovine Serum, 1% v/v penicillin-streptomycin Solution) and added in a volume of 50 μl. The compounds indicated in Table 8b were used at concentrations ranging from 0.3 pM to 1000 nM (half log dilutions, starting concentrations varying).
Finally, 50.000 PBMCs in the same medium were added to each well in a volume of 50 μl, giving a final volume of 100 μl per well. The plates were incubated for 20-24 hours in a 37° C./5% CO2 incubator. After centrifugation of the plates, 25 μl supernatant was transferred to IL-2 detection plates (MSD Human IL-2 Tissue Culture Kit, cat #K151AHB-2) and IL-2 was measures as described by the manufacturer (Meso Scale Discovery, Rockville, Maryland, USA).
All values derive from at least 6 replicates.

[7] = target: Rat whole blood (Rattus norvegicus, UniProt P15384); assay type: cell-based; settings: IL-17A release, thapsigargin, 24 Hr, at least 2 replicates
[8] = test system: KLH ear inflammation model in rats; assay type: in vivo, rat; settings: +/− SD
[9] = 50 nmol/kg SC 24 hrs prior to KLH ear challenge
[10] = 70 nmol/kg SC 24 hrs prior to KLH ear challenge

T3 sequence (P16389 whole entry): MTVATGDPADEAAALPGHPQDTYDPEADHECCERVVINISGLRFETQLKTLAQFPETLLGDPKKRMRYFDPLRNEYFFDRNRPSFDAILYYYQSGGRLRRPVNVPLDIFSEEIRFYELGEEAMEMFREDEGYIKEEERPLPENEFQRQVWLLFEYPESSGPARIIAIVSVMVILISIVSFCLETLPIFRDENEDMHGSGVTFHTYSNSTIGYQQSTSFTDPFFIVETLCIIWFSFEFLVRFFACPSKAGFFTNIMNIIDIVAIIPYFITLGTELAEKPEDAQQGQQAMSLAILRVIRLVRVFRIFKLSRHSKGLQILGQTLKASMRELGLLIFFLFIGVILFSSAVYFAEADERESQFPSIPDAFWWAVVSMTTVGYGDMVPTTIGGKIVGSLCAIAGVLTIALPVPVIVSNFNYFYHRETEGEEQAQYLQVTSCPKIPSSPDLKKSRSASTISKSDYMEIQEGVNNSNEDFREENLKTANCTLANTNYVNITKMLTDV
T2 sequence (Q09470 whole entry): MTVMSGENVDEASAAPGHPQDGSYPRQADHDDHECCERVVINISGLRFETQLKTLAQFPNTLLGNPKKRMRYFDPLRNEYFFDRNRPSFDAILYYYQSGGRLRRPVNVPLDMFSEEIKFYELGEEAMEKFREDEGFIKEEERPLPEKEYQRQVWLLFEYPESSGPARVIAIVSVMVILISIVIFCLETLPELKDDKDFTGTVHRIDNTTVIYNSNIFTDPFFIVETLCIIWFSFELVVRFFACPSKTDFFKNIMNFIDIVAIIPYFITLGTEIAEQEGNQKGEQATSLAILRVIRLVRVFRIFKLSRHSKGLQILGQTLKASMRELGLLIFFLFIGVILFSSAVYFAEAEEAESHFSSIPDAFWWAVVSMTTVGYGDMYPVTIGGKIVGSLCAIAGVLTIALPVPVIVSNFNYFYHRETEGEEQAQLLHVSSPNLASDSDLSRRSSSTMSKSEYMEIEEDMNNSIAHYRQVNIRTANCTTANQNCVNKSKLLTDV
T4 sequence (P22001 whole entry): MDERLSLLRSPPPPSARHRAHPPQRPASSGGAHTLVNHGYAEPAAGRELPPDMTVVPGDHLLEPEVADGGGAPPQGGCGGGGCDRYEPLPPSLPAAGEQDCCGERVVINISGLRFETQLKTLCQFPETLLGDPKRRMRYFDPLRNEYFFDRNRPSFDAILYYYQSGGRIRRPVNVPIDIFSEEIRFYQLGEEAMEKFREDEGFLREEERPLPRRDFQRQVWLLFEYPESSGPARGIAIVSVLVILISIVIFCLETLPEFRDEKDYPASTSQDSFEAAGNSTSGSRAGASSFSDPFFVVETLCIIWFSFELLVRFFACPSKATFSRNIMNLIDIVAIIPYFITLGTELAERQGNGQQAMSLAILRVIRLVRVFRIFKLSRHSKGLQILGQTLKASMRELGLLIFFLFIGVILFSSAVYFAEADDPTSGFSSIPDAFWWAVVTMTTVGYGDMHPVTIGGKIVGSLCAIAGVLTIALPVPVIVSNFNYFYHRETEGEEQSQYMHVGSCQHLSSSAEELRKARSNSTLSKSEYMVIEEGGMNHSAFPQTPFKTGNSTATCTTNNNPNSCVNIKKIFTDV
Rat whole blood, sequence (P15384 whole entry): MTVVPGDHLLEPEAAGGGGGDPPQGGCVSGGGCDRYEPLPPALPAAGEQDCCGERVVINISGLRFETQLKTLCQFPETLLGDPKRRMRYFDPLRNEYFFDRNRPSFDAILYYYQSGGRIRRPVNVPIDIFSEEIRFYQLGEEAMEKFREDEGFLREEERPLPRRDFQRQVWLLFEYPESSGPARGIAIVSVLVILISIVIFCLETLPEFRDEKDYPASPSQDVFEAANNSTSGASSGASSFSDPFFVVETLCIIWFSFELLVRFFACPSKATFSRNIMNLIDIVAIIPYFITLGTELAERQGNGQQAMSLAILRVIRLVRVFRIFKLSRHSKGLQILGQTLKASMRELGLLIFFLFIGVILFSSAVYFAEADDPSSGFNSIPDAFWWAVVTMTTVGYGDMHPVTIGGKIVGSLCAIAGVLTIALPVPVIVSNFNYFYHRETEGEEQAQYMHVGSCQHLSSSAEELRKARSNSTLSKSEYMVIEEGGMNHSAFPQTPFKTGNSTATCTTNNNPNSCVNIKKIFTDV
T5 sequence (P17658 whole entry): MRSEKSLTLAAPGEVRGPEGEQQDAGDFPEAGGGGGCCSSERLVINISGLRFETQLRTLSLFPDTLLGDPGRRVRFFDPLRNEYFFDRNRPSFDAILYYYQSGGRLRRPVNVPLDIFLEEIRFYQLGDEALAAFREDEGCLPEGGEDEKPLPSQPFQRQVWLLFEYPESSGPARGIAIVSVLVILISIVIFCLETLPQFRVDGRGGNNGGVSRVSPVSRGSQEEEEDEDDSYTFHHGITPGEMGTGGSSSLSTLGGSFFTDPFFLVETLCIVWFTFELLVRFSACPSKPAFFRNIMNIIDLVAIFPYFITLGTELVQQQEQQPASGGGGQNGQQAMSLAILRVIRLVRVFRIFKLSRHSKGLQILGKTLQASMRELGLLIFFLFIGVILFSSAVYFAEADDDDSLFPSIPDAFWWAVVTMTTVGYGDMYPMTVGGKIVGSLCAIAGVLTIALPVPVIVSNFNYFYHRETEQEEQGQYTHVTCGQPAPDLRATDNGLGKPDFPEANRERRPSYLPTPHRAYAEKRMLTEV
T1 sequence (P22001 whole entry): as the sequence (P22001 whole entry) above

Structure (SMILES): CCCC[C@H](NC(=O)[C@@H]1CCCN1)C(=O)N[C@@H](CCC(=O)O)C(=O)N[C@@H](CCCC)C(=O)N[C@@H](CCCNC(=N)N)C(=O)N[C@H]1CSSC[C@@H]2NC(=O)[C@H](CCCCN)NC(=O)CNC(=O)[C@H](Cc3ccccc3)NC(=O)[C@H]([C@@H](C)CC)NC(=O)[C@H](CO)NC(=O)CNC(=O)[C@H]([C@@H](C)CC)NC(=O)[C@H](C)NC(=O)[C@H](C)NC(=O)[C@H](CC(C)C)NC(=O)[C@@H]3CSSC[C@@H](C(=O)N[C@@H](Cc4ccc(O)cc4)C(=O)N4CCC[C@H]4C(=O)N[C@@H](CCCNC(=N)N)C(=O)O)NC(=O)[C@H](CCCCN)NC(=O)[C@H](CSSC[C@H](NC(=O)[C@H](CCC(=O)O)NC(=O)[C@H](C(C)C)NC(=O)[C@H](CO)NC(=O)[C@H](C)NC(=O)[C@H](CNC(=N)N)NC1=O)C(=O)N[C@@H](CCCCN)C(=O)N[C@@H](CCC(N)=O)C(=O)N[C@@H](CCCCN)C(=O)N3)NC(=O)[C@H](CCCCN)NC(=O)[C@H](CCCCN)NC(=O)[C@H](CC(N)=O)NC(=O)[C@H](CCCC)NC2=O [Cpd No. 3] (H-P[Nle]E[Nle]RC[Agp]ASVECKQKCLAAIGSIFGKC[Nle]NKKCKCYPR-OH; disulfide 6-27, 12-32, 16-34)
- IC50 [1]: 0.13 nM
- IC50 ([2]; CHO cells, QPatch whole-cell, read-out: Potency IC50 Kv1.1): > 3000 nM
- Selectivity ratio Kv1.1/Kv1.3 [2]: >46000
- IC50 ([3]; CHO cells, QPatch whole-cell, read-out: Potency IC50 Kv1.2): 380 nM
- Selectivity ratio Kv1.2/Kv1.3 [3]: 6000
- IC50 [4]: 0.064 nM
- IC50 ([5]; CHO cells, QPatch whole-cell, read-out: Potency IC50 Kv1.6): > 3000 nM
- Selectivity ratio Kv1.6/Kv1.3 [5]: >46000

Structure (SMILES): CC[C@H](C)[C@@H]1NC(=O)[C@H](C)NC(=O)[C@H](CCCCN)NC(=O)[C@H](CC(C)C)NC(=O)[C@@H]2CSSC[C@@H](C(=O)N[C@@H](Cc3ccc(O)cc3)C(=O)N3CCC[C@H]3C(=O)N[C@@H](CCCNC(=N)N)C(=O)O)NC(=O)[C@H](CCCCN)NC(=O)[C@@H]3CSSC[C@H](NC(=O)[C@H](CCC(=O)O)NC(=O)[C@H](C(C)C)NC(=O)[C@H](CO)NC(=O)[C@H](C)NC(=O)[C@H](CO)NC(=O)[C@@H](NC(=O)[C@H](CCCNC(=N)N)NC(=O)[C@H](CCSC)NC(=O)[C@H](CC(=O)O)NC(=O)[C@H](CCSC)NC(=O)[C@@H](N)CC(N)=O)CSSC[C@H](NC(=O)[C@H](CCCCN)NC(=O)CNC(=O)[C@H](Cc4ccccc4)NC(=O)[C@H]([C@@H](C)CC)NC(=O)[C@H](CO)NC(=O)CNC1=O)C(=O)N[C@@H](CCSC)C(=O)N[C@@H](CC(N)=O)C(=O)N[C@@H](CCCCN)C(=O)N[C@@H](CCCCN)C(=O)N3)C(=O)N[C@@H](CCCCN)C(=O)N[C@@H](CCC(N)=O)C(=O)N[C@@H](CCCCN)C(=O)N2 [compound 17] (H-NMDMRCSASVECKQKCLKAIGSIFGKCMNKKCKCYPR-OH; disulfide 6-27, 12-32, 16-34)
- Selectivity ratio Kv1.1/Kv1.3 [2]: >11300
- Selectivity ratio Kv1.2/Kv1.3 [3]: 1540
- Selectivity ratio Kv1.6/Kv1.3 [5]: >11300
- IC50 [6]: 0.06 nM
- IC50 [7]: 1 nM
- % inhibition of ear thickness (AUC of Δ ear thickness 0-48 hours) [8, 9]: 37.3 (+/−13.8) %
- % inhibition of ear thickness (AUC of Δ ear thickness 0-48 hours) [8, 10]: 38.8 (+/−9.7) % and 25.0 (+/−12.5) %

Structure (SMILES): CC[C@H](C)[C@@H]1NC(=O)[C@H](C)NC(=O)[C@H](CCCCN)NC(=O)[C@H](CC(C)C)NC(=O)[C@@H]2CSSC[C@@H](C(=O)N[C@@H](Cc3ccc(O)cc3)C(=O)N3CCC[C@H]3C(=O)N[C@@H](CCCNC(=N)N)C(N)=O)NC(=O)[C@H](CCCCN)NC(=O)[C@@H]3CSSC[C@H](NC(=O)[C@H](CCC(=O)O)NC(=O)[C@H](C(C)C)NC(=O)[C@H](CO)NC(=O)[C@H](C)NC(=O)[C@H](CCCCN)NC(=O)[C@@H](NC(=O)[C@H](CCCNC(=N)N)NC(=O)[C@H](CCSC)NC(=O)[C@H](CC(=O)O)NC(=O)[C@H](CCSC)NC(=O)[C@@H](N)CC(N)=O)CSSC[C@H](NC(=O)[C@H](CCCCN)NC(=O)CNC(=O)[C@H](Cc4ccccc4)NC(=O)[C@H]([C@@H](C)CC)NC(=O)[C@H](CO)NC(=O)CNC1=O)C(=O)N[C@@H](CCSC)C(=O)N[C@@H](CC(N)=O)C(=O)N[C@@H](CCCCN)C(=O)N[C@@H](CCCCN)C(=O)N3)C(=O)N[C@@H](CCCCN)C(=O)N[C@@H](CCC(N)=O)C(=O)N[C@@H](CCCCN)C(=O)N2 [compound 29] (H-NMDMRCKASVECKQKCLKAIGSIFGKCMNKKCKCYPR-NH2; disulfide 6-27, 12-32, 16-34)
- Selectivity ratio Kv1.1/Kv1.3 [2]: >34200
- Selectivity ratio Kv1.2/Kv1.3 [3]: 761
- IC50 [4]: 0.09 nM
- Selectivity ratio Kv1.6/Kv1.3 [5]: 4144

Structure (SMILES): CCCC[C@H](NC(=O)[C@@H]1CCCN1)C(=O)N[C@@H](CC(=O)O)C(=O)N[C@@H](CCCC)C(=O)N[C@@H](CCCNC(=N)N)C(=O)N[C@H]1CSSC[C@@H]2NC(=O)[C@H](CCCCN)NC(=O)CNC(=O)[C@H](Cc3ccccc3)NC(=O)[C@H]([C@@H](C)CC)NC(=O)[C@H](CO)NC(=O)CNC(=O)[C@H]([C@@H](C)CC)NC(=O)[C@H](C)NC(=O)[C@H](CCCCN)NC(=O)[C@H](CC(C)C)NC(=O)[C@@H]3CSSC[C@@H](C(=O)N[C@@H](Cc4ccc(O)cc4)C(=O)N4CCC[C@H]4C(=O)N[C@@H](CCCNC(=N)N)C(N)=O)NC(=O)[C@H](CCCCN)NC(=O)[C@H](CSSC[C@H](NC(=O)[C@H](CCC(=O)O)NC(=O)[C@H](C(C)C)NC(=O)[C@H](CO)NC(=O)[C@H](C)NC(=O)[C@H](CO)NC1=O)C(=O)N[C@@H](CCCCN)C(=O)N[C@@H](CCC(N)=O)C(=O)N[C@@H](CCCCN)C(=O)N3)NC(=O)[C@H](CCCCN)NC(=O)[C@H](CCCCN)NC(=O)[C@H](CC(N)=O)NC(=O)[C@H](CCCC)NC2=O [compound 45] (H-P[Nle]D[Nle]RCSASVECKQKCLKAIGSIFGKC[Nle]NKKCKCYPR-NH2; disulfide 6-27, 12-32, 16-34)
- Selectivity ratio Kv1.1/Kv1.3 [2]: >17100
- Selectivity ratio Kv1.2/Kv1.3 [3]: 5362
- Selectivity ratio Kv1.6/Kv1.3 [5]: >17100
- IC50 [6]: 0.03 nM
- IC50 [7]: 0.98 nM
- % inhibition of ear thickness (AUC of Δ ear thickness 0-48 hours) [8, 9]: 22.2 (+/−11.1) %
- % inhibition of ear thickness (AUC of Δ ear thickness 0-48 hours) [8, 10]: 46.9 (+/−10.9) % and 27.7 (+/−11.5) %
- % inhibition of ear thickness (AUC of Δ ear thickness 0-48 hours) ([8]; 100 nmol/kg SC 24 hrs prior to KLH ear challenge): 41.9 (+/−12.5) %

Structure (SMILES): CCCC[C@H](NC(=O)[C@H](CC(=O)O)NC(=O)[C@H](CCCC)NC(=O)[C@@H](N)CO)C(=O)N[C@@H](CCCNC(=N)N)C(=O)N[C@H]1CSSC[C@@H]2NC(=O)[C@H](CCCCN)NC(=O)CNC(=O)[C@H](Cc3ccccc3)NC(=O)[C@H]([C@@H](C)CC)NC(=O)[C@H](CO)NC(=O)CNC(=O)[C@H]([C@@H](C)CC)NC(=O)[C@H](C)NC(=O)[C@H](CCCCN)NC(=O)[C@H](CC(C)C)NC(=O)[C@@H]3CSSC[C@@H](C(=O)N[C@@H](Cc4ccc(O)cc4)C(=O)N4CCC[C@H]4C(=O)N[C@@H](CCCNC(=N)N)C(N)=O)NC(=O)[C@H](CCCNC(=N)N)NC(=O)[C@H](CSSC[C@H](NC(=O)[C@H](CCC(=O)O)NC(=O)[C@H](C(C)C)NC(=O)[C@H](CO)NC(=O)[C@H](C)NC(=O)[C@H](CO)NC1=O)C(=O)N[C@@H](CCCCN)C(=O)N[C@@H](CCC(N)=O)C(=O)N[C@@H](CCCCN)C(=O)N3)NC(=O)[C@H](CCCCN)NC(=O)[C@H](CCCCN)NC(=O)[C@H](CC(N)=O)NC(=O)[C@H](CCSC)NC2=O [compound 75] (H-S[Nle]D[Nle]RCSASVECKQKCLKAIGSIFGKCMNKKCRCYPR-NH2; disulfide 6-27, 12-32, 16-34)
- IC50 [4]: 0.13 nM
- IC50 [7]: 0.86 nM
